{"source": "patent US20230013669A1", "about": "“Antibacterial Treatment Using a Cannabinoid and an Active Agent” (priority 2019, published 2023)", "key": {"[1]": {"test_system": "Klebsiella pneumoniae ATCC 700603", "experiment": "Synergy of cannabidiol with cell-wall disrupting agent (CBD MIC in combination, FICI)", "assay_type": "cell-based", "conditions": "for FICI: CBD MIC taken as 256 μg/mL; for MIC: Klebsiella pneumoniae", "method": "(§1) Methods were as for Example 1. Cannabidiol was tested in combination with cefotetan.\n(§2) Methods were as for Example 1. Cannabidiol was tested in combination with aztreonam.\n(§3) Methods were as for Example 1. Cannabidiol was tested in combination with cefepime.\n(§4) Methods were as for Example 1. Cannabidiol was tested in combination with octapeptin C4.\n(§5) Methods were as for Example 1. Cannabidiol was tested in combination with Spero SPR206. The experiments were carried out three times."}, "[2]": {"test_system": "Klebsiella pneumoniae ATCC 700603", "experiment": "MIC micro-broth dilution assay (Example 1 method)", "assay_type": "cell-based", "conditions": "Klebsiella pneumoniae, ATCC700603; CBD alone; read-out: CBD MIC", "method": "as §1, §2, §3, §4, §5"}}, "note": "Several values for one entry are separate records, joined by “and”; a condition that tells them apart may be missing. Identical values can stand only once."}
{"compound": "C=C(C)C1CCC(C)=CC1c1c(O)cc(CCCCC)cc1O", "note": "(stereo not drawn) [Cannabidiol, 2-[3-methyl-6-(1-methylethenyl)-2-cyclohexen-1-yl]-5-pentyl-1,3-benzenediol]", "values": [{"measurement": "CBD MIC with Aztreonam", "setting": "[1]; Aztreonam at 64 μg/mL", "result": 0.001, "unit": "µg/mL"}, {"measurement": "FICI", "setting": "[1]; CBD with Aztreonam at 2 μg/mL", "result": 1}, {"measurement": "FICI", "setting": "[1]; CBD with Aztreonam at 4 μg/mL", "result": 1}, {"measurement": "FICI", "setting": "[1]; CBD with Aztreonam at 8 μg/mL", "result": 1.001}, {"measurement": "FICI", "setting": "[1]; CBD with Aztreonam at 16 μg/mL", "result": 1.002}, {"measurement": "FICI", "setting": "[1]; CBD with Aztreonam at 32 μg/mL", "result": 1.004}, {"measurement": "FICI", "setting": "[1]; CBD with Aztreonam at 64 μg/mL", "result": 0.007816}, {"measurement": "FICI range", "setting": "[1]; CBD with Aztreonam, Synergy table (Table 76)", "result": 0.008}, {"measurement": "FICI range", "setting": "[1]; CBD with Aztreonam, all tested concentrations (Table 74)", "result": "0.01-1"}, {"measurement": "FICI", "setting": "[1]; CBD with Cefepime at 0.015 μg/mL", "result": 1.015}, {"measurement": "FICI", "setting": "[1]; CBD with Cefepime at 0.031 μg/mL", "result": 1.031}, {"measurement": "FICI", "setting": "[1]; CBD with Cefepime at 0.062 μg/mL", "result": 1.062}, {"measurement": "FICI", "setting": "[1]; CBD with Cefepime at 0.5 μg/mL", "result": 1.5}, {"measurement": "FICI range", "setting": "[1]; CBD with Cefepime, all tested concentrations (Table 79)", "result": "1.02-1.5"}, {"measurement": "FICI", "setting": "[1]; CBD with Cefotetan at 0.015 μg/mL", "result": "1.03 and 1.015"}, {"measurement": "FICI", "setting": "[1]; CBD with Cefotetan at 0.031 μg/mL", "result": "1.062 and 1.031"}, {"measurement": "FICI", "setting": "[1]; CBD with Cefotetan at 0.062 μg/mL", "result": "1.124 and 1.062"}, {"measurement": "FICI", "setting": "[1]; CBD with Cefotetan at 0.25 μg/mL", "result": 1.5}, {"measurement": "FICI", "setting": "[1]; CBD with Cefotetan at 0.5 μg/mL", "result": "1 and 0.5"}, {"measurement": "FICI", "setting": "[1]; CBD with Octapeptin C4 at 0.25 μg/mL", "result": 1.0625}, {"measurement": "FICI", "setting": "[1]; CBD with Octapeptin C4 at 0.5 μg/mL", "result": 1.0625}, {"measurement": "FICI", "setting": "[1]; CBD with Octapeptin C4 at 2 μg/mL", "result": 1.5}, {"measurement": "FICI", "setting": "[1]; CBD with Octapeptin C4 at […]", "result": 1.016}, {"measurement": "FICI range", "setting": "[1]; CBD with Spero SPR206, 1st of 3 experiments", "result": "0.52-16"}, {"measurement": "FICI range", "setting": "[1]; CBD with Spero SPR206, 2nd of 3 experiments", "result": "0.28-1.12"}, {"measurement": "FICI range", "setting": "[1]; CBD with Spero SPR206, 3rd of 3 experiments", "result": "1.25-8"}, {"measurement": "FICI", "setting": "[1]; CBD with Spero SPR206 at 0.007 μg/mL, 2nd of 3 experiments", "result": 1.014}, {"measurement": "FICI", "setting": "[1]; CBD with Spero SPR206 at 0.015 μg/mL, 2nd of 3 experiments", "result": 1.03}, {"measurement": "FICI", "setting": "[1]; CBD with Spero SPR206 at 0.031 μg/mL, 2nd of 3 experiments", "result": 1.062}, {"measurement": "FICI", "setting": "[1]; CBD with Spero SPR206 at 0.062 μg/mL, 2nd of 3 experiments", "result": 1.124}, {"measurement": "FICI", "setting": "[1]; CBD with Spero SPR206 at 0.25 μg/mL, 1st of 3 experiments", "result": 1}, {"measurement": "FICI", "setting": "[1]; CBD with Spero SPR206 at 0.25 μg/mL, 2nd of 3 experiments", "result": 0.5039}, {"measurement": "FICI", "setting": "[1]; CBD with Spero SPR206 at 0.25 μg/mL, 3rd of 3 experiments", "result": 1.5}, {"measurement": "FICI", "setting": "[1]; CBD with Spero SPR206 at 0.5 μg/mL, 1st of 3 experiments", "result": 2}, {"measurement": "FICI", "setting": "[1]; CBD with Spero SPR206 at 0.5 μg/mL, 3rd of 3 experiments", "result": 2}, {"measurement": "FICI", "setting": "[1]; CBD with Spero SPR206 at 1 μg/mL, 1st of 3 experiments", "result": 4}, {"measurement": "FICI", "setting": "[1]; CBD with Spero SPR206 at 1 μg/mL, 3rd of 3 experiments", "result": 3}, {"measurement": "FICI", "setting": "[1]; CBD with Spero SPR206 at 2 μg/mL, 1st of 3 experiments", "result": 8}, {"measurement": "FICI", "setting": "[1]; CBD with Spero SPR206 at 2 μg/mL, 3rd of 3 experiments", "result": "4.004 and 4.008"}, {"measurement": "FICI", "setting": "[1]; CBD with Spero SPR206 at 4 μg/mL, 1st of 3 experiments", "result": 16}, {"measurement": "FICI", "setting": "[1]; CBD with Spero SPR206 at 4 μg/mL, 3rd of 3 experiments", "result": 8}, {"measurement": "FICI", "setting": "[1]; CBD with Spero SPR206 at […], 1st of 3 experiments", "result": 0.5156}, {"measurement": "CBD MIC with Cefotetan", "setting": "[1]; Cefotetan at 0.015 μg/mL", "result": ">32", "unit": "µg/mL"}, {"measurement": "CBD MIC with Cefotetan", "setting": "[1]; Cefotetan at 0.031 μg/mL", "result": ">32", "unit": "µg/mL"}, {"measurement": "CBD MIC with Cefotetan", "setting": "[1]; Cefotetan at 0.062 μg/mL", "result": ">32", "unit": "µg/mL"}, {"measurement": "CBD MIC with Cefotetan", "setting": "[1]; Cefotetan at 0.25 μg/mL", "result": ">32", "unit": "µg/mL"}, {"measurement": "CBD MIC with Cefotetan", "setting": "[1]; Cefotetan at 0.5 μg/mL", "result": 0.001, "unit": "µg/mL"}, {"measurement": "CBD MIC with Cefotetan", "setting": "[1]; Cefotetan at […]", "result": ">32", "unit": "µg/mL"}, {"measurement": "MIC", "setting": "[1]; ATCC700603, Octapeptin C4 at 4 μg/mL, read-out: CBD MIC with Octapeptin C4", "result": 1, "unit": "µg/mL"}, {"measurement": "MIC", "setting": "[1]; ATCC700603, Spero SPR206 at 0.007 μg/mL, 2nd of 3 experiments, read-out: CBD MIC with Spero SPR206", "result": "> 256", "unit": "µg/mL"}, {"measurement": "MIC", "setting": "[1]; ATCC700603, Spero SPR206 at 0.015 μg/mL, 2nd of 3 experiments, read-out: CBD MIC with Spero SPR206", "result": "> 256", "unit": "µg/mL"}, {"measurement": "MIC", "setting": "[1]; ATCC700603, Spero SPR206 at 0.031 μg/mL, 2nd of 3 experiments, read-out: CBD MIC with Spero SPR206", "result": "> 256", "unit": "µg/mL"}, {"measurement": "MIC", "setting": "[1]; ATCC700603, Spero SPR206 at 0.062 μg/mL, 2nd of 3 experiments, read-out: CBD MIC with Spero SPR206", "result": "> 256", "unit": "µg/mL"}, {"measurement": "MIC", "setting": "[1]; ATCC700603, Spero SPR206 at 0.25 μg/mL, 1st of 3 experiments, read-out: CBD MIC with Spero SPR206", "result": 0.001, "unit": "µg/mL"}, {"measurement": "MIC", "setting": "[1]; ATCC700603, Spero SPR206 at 0.25 μg/mL, 2nd of 3 experiments, read-out: CBD MIC with Spero SPR206", "result": 1, "unit": "µg/mL"}, {"measurement": "MIC", "setting": "[1]; ATCC700603, Spero SPR206 at 0.25 μg/mL, 3rd of 3 experiments, read-out: CBD MIC with Spero SPR206", "result": "> 256", "unit": "µg/mL"}, {"measurement": "MIC", "setting": "[1]; ATCC700603, Spero SPR206 at 0.5 μg/mL, 1st of 3 experiments, read-out: CBD MIC with Spero SPR206", "result": 0.001, "unit": "µg/mL"}, {"measurement": "MIC", "setting": "[1]; ATCC700603, Spero SPR206 at 0.5 μg/mL, 3rd of 3 experiments, read-out: CBD MIC with Spero SPR206", "result": "> 256", "unit": "µg/mL"}, {"measurement": "MIC", "setting": "[1]; ATCC700603, Spero SPR206 at 1 μg/mL, 1st of 3 experiments, read-out: CBD MIC with Spero SPR206", "result": 0.001, "unit": "µg/mL"}, {"measurement": "MIC", "setting": "[1]; ATCC700603, Spero SPR206 at 1 μg/mL, 3rd of 3 experiments, read-out: CBD MIC with Spero SPR206", "result": "> 256", "unit": "µg/mL"}, {"measurement": "MIC", "setting": "[1]; ATCC700603, Spero SPR206 at 2 μg/mL, 1st of 3 experiments, read-out: CBD MIC with Spero SPR206", "result": 0.001, "unit": "µg/mL"}, {"measurement": "MIC", "setting": "[1]; ATCC700603, Spero SPR206 at 2 μg/mL, 3rd of 3 experiments, read-out: CBD MIC with Spero SPR206", "result": 1, "unit": "µg/mL"}, {"measurement": "MIC", "setting": "[1]; ATCC700603, Spero SPR206 at 4 μg/mL, 1st of 3 experiments, read-out: CBD MIC with Spero SPR206", "result": 0.001, "unit": "µg/mL"}, {"measurement": "MIC", "setting": "[1]; ATCC700603, Spero SPR206 at 4 μg/mL, 3rd of 3 experiments, read-out: CBD MIC with Spero SPR206", "result": 0.001, "unit": "µg/mL"}, {"measurement": "MIC", "setting": "[1]; ATCC700603, read-out: CBD MIC with Spero SPR206, Spero SPR206 at […], 1st of 3 experiments", "result": 4, "unit": "µg/mL"}, {"measurement": "MIC", "setting": "[1]; ATCC700603, read-out: CBD MIC with Spero SPR206, Spero SPR206 at […], 2nd of 3 experiments", "result": 8, "unit": "µg/mL"}, {"measurement": "CBD MIC with Octapeptin C4", "setting": "[1]; Octapeptin C4 at 4 μg/mL, listed as CBD", "result": 0.5, "unit": "µg/mL"}, {"measurement": "CBD MIC with Spero SPR206", "setting": "[1]; Spero SPR206 at 2 μg/mL, 3rd of 3 experiments, listed as CBD", "result": 2, "unit": "µg/mL"}, {"measurement": "MIC", "setting": "[2]", "result": 256, "unit": "µg/mL"}]}
